Assay: molar heat capacity at constant pressure
Settings: 101.33 kPa, Crystal 2, Small sample (50 mg) DSC

O=[Si]=O [silicon dioxide]
Settings	molar heat capacity at constant pressure [J/K/mol]
285 K	43.21
290 K	43.7
295 K	44.22
300 K	44.74
305 K	45.21
310 K	45.69
315 K	46.16
320 K	46.62
325 K	47.09
330 K	47.56
335 K	48.02
340 K	48.49
345 K	48.94
350 K	49.39
355 K	49.78
360 K	50.22
365 K	50.62
370 K	51.02
375 K	51.38
380 K	51.76
385 K	52.15
390 K	52.52
395 K	52.89
400 K	53.25
405 K	53.61
410 K	53.99
415 K	54.34
420 K	54.7
425 K	55.03
430 K	55.38
435 K	55.74
440 K	56.07
445 K	56.42
450 K	56.75
455 K	57.1
460 K	57.4
465 K	57.69
470 K	58.01
475 K	58.29
480 K	58.59
485 K	58.87
490 K	59.12
495 K	59.37
500 K	59.63
505 K	59.91
510 K	60.16
515 K	60.41
520 K	60.66
525 K	60.91
530 K	61.15
535 K	61.41
540 K	61.66
545 K	61.92
550 K	62.19
555 K	62.45
560 K	62.73
565 K	63.01
570 K	63.26
575 K	63.49
580 K	63.74
585 K	64.01
590 K	64.24
595 K	64.46
600 K	64.69
605 K	64.89
610 K	65.09
615 K	65.3
620 K	65.5
625 K	65.73
630 K	65.97
635 K	66.17
640 K	66.38
645 K	66.62
650 K	66.84
655 K	67.01
660 K	67.18
665 K	67.38
670 K	67.57
675 K	67.75
680 K	67.94
685 K	68.16
690 K	68.35
695 K	68.56
700 K	68.75
705 K	68.95
710 K	69.14
715 K	69.35
720 K	69.58
725 K	69.69
730 K	69.83
735 K	70
740 K	70.22
745 K	70.45
750 K	70.72
755 K	71
760 K	71.26
780.95 K	71.65
781.12 K	71.67
781.28 K	71.59
781.45 K	71.55
781.61 K	71.6
781.78 K	71.49
781.94 K	71.36
782.11 K	71.45
782.28 K	71.45
782.45 K	71.54
782.62 K	71.57
782.78 K	71.51
782.95 K	71.6
783.12 K	71.5
783.28 K	71.3
783.45 K	71.26
783.62 K	71.08
783.78 K	71.24
783.95 K	71.41
784.12 K	71.45
784.28 K	71.52
784.45 K	71.54
784.62 K	71.49
784.78 K	71.52
784.95 K	71.46
785.12 K	71.45
785.28 K	71.49
785.45 K	71.49
785.62 K	71.49
785.79 K	71.54
785.95 K	71.6
786.12 K	71.72
786.29 K	71.77
786.45 K	71.65
786.62 K	71.5
786.78 K	71.36
786.95 K	71.21
787.12 K	71.35
787.29 K	71.46
787.46 K	71.52
787.62 K	71.51
787.78 K	71.6
787.95 K	71.68
788.12 K	71.69
788.28 K	71.59
788.45 K	71.56
788.62 K	71.65
788.79 K	71.81
788.95 K	71.75
789.12 K	71.7
789.29 K	71.78
789.45 K	71.82
789.62 K	71.7
789.79 K	71.66
789.95 K	71.68
790.12 K	71.65
790.28 K	71.4
790.45 K	71.28
790.62 K	71.32
790.78 K	71.49
790.95 K	71.6
791.12 K	71.65
791.29 K	71.82
791.45 K	71.83
791.62 K	71.77
791.79 K	71.7
791.95 K	71.64
792.12 K	71.58
792.29 K	71.65
792.45 K	71.69
792.61 K	71.77
792.78 K	71.83
792.95 K	71.78
793.12 K	71.69
793.28 K	71.67
793.45 K	71.75
793.61 K	71.63
793.78 K	71.65
793.95 K	71.8
794.12 K	71.75
794.29 K	71.74
794.45 K	71.73
